US6673365B1, “Formulation for treatment of thromboembolism” (priority 1996, dated 2004)

Assay: Bioavailability in vivo in the rat after intraduodenal administration
Protocol: The formulations, A to D, respectively, were tested in vivo in the rat model using intraduodenally catheterized, nonanesthetized animals. Formulations were given as a bolus. Blood samples were withdrawn at certain time points for up to 4 hours after administration of the different formulations. The concentrations of HOOC—CH2—(R)-Cgl-Aze-Pab were analyzed in the plasma and the bioavailabilities calculated from the Area under the curve (AUC) using standard pharmacokinetic methods (Rowland and Tozer, Clinical Pharmacokinetics, concepts and applications, 1980).
The bioavailability increased tenfold to twentyfold when the different formulations mentioned in the invention were used, as compared to controls where only phosphate buffer of pH 8 was used (1). Formulation B was also tested in human healthy subjects using enteric coated capsules for administration directly to the duodenum. The results from the human study also indicate a tenfold increased absorption as compared to a control tablet or solution of the thrombin inhibitor base only.

In the case of `CCCCCCCC(=O)OCC(O)CO` (stereo not shown) [glyceryl mono-octanoate(1-monocaprylin), glyceryl mono-octanoate], the “Enhancing effect, glycerides from different sources compared” value is reported as “most efficient enhancing effect”.
